The results in this text go back to patent publication US12649733B2, “3,6-diamino-pyridazin-3-yl derivatives, pharmaceutical compositions containing them and their uses as pro-apoptotic agents” (LES LABORATOIRES SERVIER, priority 2019, dated 2026).

The test system of one assay is MOLT-4 cells. The experiment in a line: MOLT-4 cell viability, MTT assay. Conditions: 48 h exposure. It is filed as cell-based. An outline of the steps:
(§1)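 Cells grown in RPMI 1640 with 10% heat-inactivated FBS at 37° C, 5% CO2, exposed 48 h to nine 3.16-fold serial compound dilutions in triplicate. MTT added for 4 h, SDS/HCl solubilisation overnight, absorbance at 540 nm; IC50 by four-parameter fit.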
(In general: Tetrazolium dyes change colour on reduction, which living cells bring about.)

A further assay has as its target T1, Bcl-xL protein (Homo sapiens, UniProt Q07817, N197C).
T1 construct: (2-197)[N197C]; His-His (two His8 stretches joined by a Gly/Ala/Ser/Thr linker)
The experiment in a line: Fluorescence quenching assay (PUMA peptide displacement). It is filed as binding. Conditions: 1 nM protein, 400 nM peptide, 2 hours at 23° C.; KI determined from IC50. The source says:
Fluorescence quenching assay measures the change in fluorescence intensity of C-terminally Cy5-labeled BCL-xL protein, His-His-(EK)-hs ? (2-197)[N197C] (UniProtKB® primary accession number Q07817-1) having an amino acid sequence (SEQ ID:03): [[…] […] […] […] […]] which is linked in C-terminal region to the amino acid X which corresponds to a cysteine labeled on the sulfur with Sulfo-Cyanine5 from Lumiprobe GmbH catalogue number 13380, upon binding of a C-terminally labeled peptide derived from PUMA (UniProtKB® primary accession number Q9BXH1) having an aminoacid sequence (SEQ ID:04): [[…]] which is linked in C-terminal region to the amino acid X′ where X′ is cysteine labeled on the sulfur with TQ5WS from AAT Bioquest catalogue number 2079.
The addition of a compound which binds competitively to the same site as the peptide will result in an increase in the fluorescence intensity of the protein due to displacement of the fluorescence quencher.
An 11-point serial dilution of each compound was prepared in DMSO the final buffer conditions were 10 mM 4-(2-hydroxyethyl)-1-piperazineethanesulfonic acid [HEPES], 150 mM NaCl, 0.05% Tween 20, pH 7.4 and 5% DMSO. The final protein concentration in the assay was 1 nM with the peptide present at 400 nM. The experiments were incubated for 2 hours at 23° C. before fluorescence intensity was measured on a Biotek SynergyNeo plate reader (Excitation 620 nm, emission 680 nm). […] The KI values were determined from the IC50 values according to Cer et al, Nucleic Acids Res, 2009, Jul. 1: 37(WebServer issue): W441-W445.

The next assay deals with H146 cells. The experiment in a line: H146 cell viability, MTT assay. The following applies: 48 h exposure. The format is cell-based. The essentials: as §1

Molecules are shown by their SMILES. Where only a bound is given, the exact number is not on record here.

T1 sequence (Q07817 2-197 N197C): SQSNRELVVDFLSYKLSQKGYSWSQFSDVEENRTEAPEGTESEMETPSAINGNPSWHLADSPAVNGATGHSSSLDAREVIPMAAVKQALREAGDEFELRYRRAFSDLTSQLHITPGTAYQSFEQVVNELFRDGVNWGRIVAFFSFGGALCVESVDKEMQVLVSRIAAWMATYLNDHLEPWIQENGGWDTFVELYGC

For the molecule `Cc1cc(N(C)c2nc(C(=O)O)c(CCCOc3ccc(C#CC(C)N4CCOCC4)cc3F)s2)nnc1Nc1nc2ccccc2s1` (single isomer, unassigned) [Example 206, 2-[[6-(1,3-Benzothiazol-2-ylamino)-5-methyl-pyridazin-3-yl]-methyl-amino]-5-[3-[2-fluoro-4-((3R or 3S)-morpholinobut-1-ynyl)phenoxy]propyl]thiazole-4-carboxylic acid], the IC50 – broadly, the concentration that gives 50% inhibition – was determined as 1.48 nM with MOLT-4 cells (Homo sapiens, MOLT-4, 48 h) and 15 nM in the assay on H146 cells. Moreover, the Ki (in general, the equilibrium dissociation constant of an inhibitor or competing ligand from its target) at Bcl-xL protein was 0.009 nM.
For `Cc1cc(N(C)c2nc(C(=O)O)c(CCCOc3ccc(C#CC(C)N4CCOCC4)cc3F)s2)nnc1Nc1nc2ccccc2s1` (single isomer, unassigned) [Example 208, 2-[[6-(1,3-Benzothiazol-2-ylamino)-5-methyl-pyridazin-3-yl]-methyl-amino]-5-[3-[2-fluoro-4-((3S or 3R)-morpholinobut-1-ynyl)phenoxy]propyl]thiazole-4-carboxylic acid], the concentration for half-maximal inhibition (IC50) with MOLT-4 cells worked out at 0.753 nM; in the assay on H146 cells it was 7.33 nM. Further, on Bcl-xL protein, the inhibition constant (Ki) was 0.0088 nM.
On to `Cc1cc(N(CCCCN2CCC(N)CC2)c2nc(C(=O)O)c(CCCOc3ccc(C#CCN(C)C)cc3F)s2)nnc1Nc1nc2ccccc2s1` [Example 175, 2-[4-(4-Amino-1-piperidyl)butyl-[6-(1,3-benzothiazol-2-ylamino)-5-methyl-pyridazin-3-yl]amino]-5-[3-[4-[3-(dimethylamino)prop-1-ynyl]-2-fluoro-phenoxy]propyl]thiazole-4-carboxylic acid], for which the IC50 in the assay on MOLT-4 cells (Homo sapiens, MOLT-4, 48 h) was 204 nM; in the assay on H146 cells (Homo sapiens, NCI-H146, 48 h), 75 nM. Moreover, the inhibition constant Ki on Bcl-xL protein turned out to be 0.0011 nM.
Turning to `CCN(CC)CCNCCCCN(c1cc(C)c(Nc2nc3ccccc3s2)nn1)c1nc(C(=O)O)c(CCCOc2ccc(C#CCN(C)C)cc2F)s1` [Example 176, 2-[[6-(1,3-Benzothiazol-2-ylamino)-5-methyl-pyridazin-3-yl]-[4-[2-(diethylamino)ethylamino]butyl]amino]-5-[3-[4-[3-(dimethylamino)prop-1-ynyl]-2-fluoro-phenoxy]propyl]thiazole-4-carboxylic acid], the concentration for half-maximal inhibition (IC50) is 76.2 nM with MOLT-4 cells (Homo sapiens, MOLT-4, 48 h) and 124 nM in the assay on H146 cells (Homo sapiens, NCI-H146, 48 h). The Ki at Bcl-xL protein amounted to 0.0011 nM.
The corresponding values for `Cc1cc(N(CCCCCN2CCC(N)CC2)c2nc(C(=O)O)c(CCCOc3ccc(C#CCN(C)C)cc3F)s2)nnc1Nc1nc2ccccc2s1` [Example 177, 2-[5-(4-Amino-1-piperidyl)pentyl-[6-(1,3-benzothiazol-2-ylamino)-5-methyl-pyridazin-3-yl]amino]-5-[3-[4-[3-(dimethylamino)prop-1-ynyl]-2-fluoro-phenoxy]propyl]thiazole-4-carboxylic acid] are 225 nM, 36.3 nM and 0.003 nM.
With `CNCC#Cc1cc(F)c(OCCCc2sc(N(C)c3cc(C)c(Nc4nc5ccccc5s4)nn3)nc2C(=O)O)cn1` [Example 197, 2-({6-[(1,3-Benzothiazol-2-yl)amino]-5-methylpyridazin-3-yl}(methyl)amino)-5-[3-({4-fluoro-6-[3-(methylamino)prop-1-yn-1-yl]pyridin-3-yl}oxy)propyl]-1,3-thiazole-4-carboxylic acid], the Ki on Bcl-xL protein turned out to be 0.0013 nM. The molecule also registered an IC50 in the assay on H146 cells (Homo sapiens, NCI-H146, 48 h) of 43.9 nM.
With `Cc1cc(N(CCCC(O)C[N+](C)(C)CCCS(=O)(=O)[O-])c2nc(C(=O)O)c(CCCOc3ccc(/C=C/C=O)cc3F)s2)nnc1Nc1nc2ccccc2s1` (stereo not drawn) [Example 228, 3-[[5-[[6-(1,3-Benzothiazol-2-ylamino)-5-methyl-pyridazin-3-yl]-[4-carboxy-5-[3-[2-fluoro-4-[(E)-3-oxoprop-1-enyl]phenoxy]propyl]thiazol-2-yl]amino]-2-hydroxy-pentyl]-dimethyl-ammonio]propane-1-sulfonate], at Bcl-xL protein, the Ki was found to be 0.22 nM. In the assay on H146 cells (Homo sapiens, NCI-H146, 48 h), this molecule had a half-maximal inhibitory concentration (IC50) of more than 30000 nM.
As to `C#CCCCN(c1cc(C)c(Nc2nc3ccccc3s2)nn1)c1nc(C(=O)O)c(CCCOc2ccc(C#CCNC)cc2F)s1` [Example 253, 2-[{6-[(1,3-benzothiazol-2-yl)amino]-5-methylpyridazin-3-yl}(pent-4-yn-1-yl)amino]-5-(3-{2-fluoro-4-[3-(methylamino)prop-1-yn-1-yl]phenoxy}propyl)-1,3-thiazole-4-carboxylic acid], the concentration for half-maximal inhibition (IC50) in the assay on MOLT-4 cells (Homo sapiens, MOLT-4, 48 h) came to 31.7 nM. The inhibition constant Ki at Bcl-xL protein worked out at 0.07 nM.
In the assay with MOLT-4 cells (Homo sapiens, MOLT-4, 48 h), `CNCC#Cc1ccc(OCCCc2sc(N(CCCCCN=[N+]=[N-])c3cc(C)c(Nc4nc5ccccc5s4)nn3)nc2C(=O)O)c(F)c1` [Example 267, 2-[5-azidopentyl-[6-[(1,3-benzothiazol-2-yl)amino]-5-methyl-pyridazin-3-yl]amino]-5-[3-[2-fluoro-4-[3-(methylamino)prop-1-ynyl]phenoxy]propyl]-1,3-thiazole-4-carboxylic acid] gave an IC50 of 43.8 nM. Also, on Bcl-xL protein, the inhibitory constant (Ki) was found to be 0.016 nM.
Consider `Cc1cc(N(C)c2ccc(-c3cnn(CC45CC6(C)CC(C)(C4)CC(OCCNCCCO)(C6)C5)c3C)c(C(=O)O)n2)nnc1Nc1nc2ccccc2s1` [Example 268, 6-[[6-(1,3-benzothiazol-2-ylamino)-5-methyl-pyridazin-3-yl]-methyl-amino]-3-[1-[[3-[2-(3-hydroxypropylamino)ethoxy]-5,7-dimethyl-1-adamantyl]methyl]-5-methyl-pyrazol-4-yl]pyridine-2-carboxylic acid], for which half-maximal inhibition with MOLT-4 cells (Homo sapiens, MOLT-4, 48 h) (IC50) was put at 0.255 nM. The inhibition constant Ki on Bcl-xL protein was determined as 0.0023 nM.
The matching figures for `COCCCNCCOC12CC3(C)CC(C)(CC(Cn4ncc(-c5ccc(N(C)c6cc(C)c(Nc7nc8ccccc8s7)nn6)nc5C(=O)O)c4C)(C3)C1)C2` [Example 269, 6-[[6-(1,3-benzothiazol-2-ylamino)-5-methyl-pyridazin-3-yl]-methyl-amino]-3-[1-[[3-[2-(3-methoxypropylamino)ethoxy]-5,7-dimethyl-1-adamantyl]methyl]-5-methyl-pyrazol-4-yl]pyridine-2-carboxylic acid]: 0.182 nM and 0.0027 nM.
With `Cc1cc(N(C)c2ccc(-c3cnn(CC45CC6(C)CC(C)(C4)CC(OCCN4CCOCC4)(C6)C5)c3C)c(C(=O)O)n2)nnc1Nc1nc2ccccc2s1` [Example 270, 6-[[6-(1,3-benzothiazol-2-ylamino)-5-methyl-pyridazin-3-yl]-methyl-amino]-3-[1-[[3,5-dimethyl-7-(2-morpholinoethoxy)-1-adamantyl]methyl]-5-methyl-pyrazol-4-yl]pyridine-2-carboxylic acid], the half-maximal inhibitory concentration (IC50) in the assay on MOLT-4 cells (Homo sapiens, MOLT-4, 48 h) was 0.199 nM. Moreover, the inhibitory constant (Ki) on Bcl-xL protein is 0.003 nM.
The matching figures for `Cc1cc(N(C)c2ccc(-c3cnn(CC45CC6(C)CC(C)(C4)CC(OCCNCCC(=O)O)(C6)C5)c3C)c(C(=O)O)n2)nnc1Nc1nc2ccccc2s1` [Example 271, 6-[[6-(1,3-benzothiazol-2-ylamino)-5-methyl-pyridazin-3-yl]-methyl-amino]-3-[1-[[3-[2-(2-carboxyethylamino)ethoxy]-5,7-dimethyl-1-adamantyl]methyl]-5-methyl-pyrazol-4-yl]pyridine-2-carboxylic acid]: 30.8 nM and 0.0033 nM.
The matching figures for `Cc1cc(N(C)c2ccc(-c3cnn(CC45CC6(C)CC(C)(C4)CC(OCCNCc4cccc(O)c4)(C6)C5)c3C)c(C(=O)O)n2)nnc1Nc1nc2ccccc2s1` [Example 272, 6-[[6-(1,3-benzothiazol-2-ylamino)-5-methyl-pyridazin-3-yl]-methyl-amino]-3-[1-[[3-[2-[(3-hydroxyphenyl)methylamino]ethoxy]-5,7-dimethyl-1-adamantyl]methyl]-5-methyl-pyrazol-4-yl]pyridine-2-carboxylic acid]: 0.284 nM and 0.0023 nM.
